From US20110262359A1, “COMPOSITIONS COMPRISING ENZYME-CLEAVABLE PRODRUGS OF ACTIVE AGENTS AND INHIBITORS THEREOF” (priority 2010, published 2011) come the findings set out here.

Where two headings read alike, the source gives them in different places.

The nature of series [1]: Pharmacokinetics of Compound KC-4 following PO administration to rats. The series is classed as in vivo. The settings on record: rat PO; KC-4 6 mg/kg.
Series [2] in a line: Pharmacokinetics of Compound KC-4 following IV administration to rats. The series is classed as in vivo. The conditions noted are these: KC-4 2 mg/kg ([…]).
In series [3] the target is T1, trypsin from bovine pancreas (Bos taurus, UniProt P00760).
T1 sequence (P00760 24-246): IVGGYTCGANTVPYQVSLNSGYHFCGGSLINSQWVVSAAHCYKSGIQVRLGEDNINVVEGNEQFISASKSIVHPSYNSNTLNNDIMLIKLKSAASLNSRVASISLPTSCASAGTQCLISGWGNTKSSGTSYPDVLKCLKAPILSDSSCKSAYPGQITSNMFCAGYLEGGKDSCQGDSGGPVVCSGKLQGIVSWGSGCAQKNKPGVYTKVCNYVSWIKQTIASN
Kind of series: In vitro trypsin conversion of ketone-modified opioid prodrugs to oxycodone or hydrocodone and inhibition by Compound 109. The format is biochemical. Set-up: trypsin from bovine pancreas; purchased Sigma-Aldrich T8003; host or cells: bovine pancreas (tissue-derived). The settings on record: 0.761 mM prodrug, no inhibitor, 37° C.

The target of series [4] is T2, human μ-opioid receptor (Homo sapiens, UniProt P35372).
T2 construct: expressed in transfected cells; host or cells: CHO
The format is cell-based. The settings on record: EC50 at the human μ-opioid receptor, oxycodone or hydrocodone to the prodrug of that drug, same experiment.

Series [5] is described as follows: Pharmacokinetics of Compound KC-6 following PO administration to rats. The conditions noted are these: rat PO. The format is in vivo.
The conditions of series [6]: male, Sprague Dawley, rat, in vivo.
Series [7] can be described thus: Oral administration of Compound KC-2 co-dosed with increasing Compound 109 to rats. The settings on record: rat PO; KC-2 50 mg/kg with Compound 109 10 to 40 mg/kg. The series is classed as in vivo.
The nature of series [8]: Oral administration of Compound KC-2 and trypsin inhibitor Compound 109 to rats. The series is classed as in vivo. The conditions noted are these: rat PO; KC-2 6 mg/kg with Compound 109 30 mg/kg.
A short description of series [9]: Oral administration of Compound KC-4 and trypsin inhibitor Compound 109 to rats. The series is classed as in vivo. The conditions noted are these: rat PO; KC-4 6 mg/kg with Compound 109 30 mg/kg.
Series [10] is described as follows: Oral administration of Compound PC-5 co-dosed with trypsin inhibitor Compound 109 to rats. The series is classed as in vivo. The settings on record: rat PO; PC-5 6 mg/kg with Compound 109 0.1 to 10 mg/kg.
Series [11] is described as follows: Oral administration of Compound PC-6 co-dosed with trypsin inhibitor Compound 109 to rats. The format is in vivo. The settings on record: rat PO; PC-6 6 mg/kg with Compound 109 0.01 to 30 mg/kg.
The nature of series [12]: Oral administration of Compound KC-3 and trypsin inhibitor Compound 109 to rats. The format is in vivo. The settings on record: rat PO; KC-3 50 mg/kg with Compound 109 10 to 40 mg/kg.
Series [13] can be described thus: In vitro stability of Compound KC-2 to household chemicals and enzyme preparations. The format is physicochemical. The conditions noted are these: vodka, baking soda, WINDEX, vinegar at RT or 80° C.; GNC Super Digestive, tenderizer, subtilisn at RT; 1 or 24 hr. The method, then:
Samples were incubated as described and aliquots removed at 1 hr and 24 hr and stabilized by adding each to a solution of 50% or 100% of 85% phosphoric acid solution to achieve a final pH of less than or equal to pH 4. The stabilized aliquots were then diluted 4- to 6-fold with water, vortex-mixed and applied to HPLC.

Series [14] can be described thus: Pharmacokinetics of oxycodone prodrug Compound KC-2 or oxycodone following PO administration to rats. The format is in vivo. The settings on record: rat PO; Compound KC-2 20 mg/kg vs oxycodone 10 mg/kg.
The target in series [15] is T1, trypsin from bovine pancreas. In words: Effect of trypsin inhibition on in vitro trypsin-mediated release of oxycodone from Compound KC-2. The series is classed as biochemical. Set-up: trypsin from bovine pancreas; purchased Sigma-Aldrich T8003; host or cells: bovine pancreas (tissue-derived). The conditions noted are these: no trypsin inhibitor; 0.761 mM Compound KC-2, 0.0228 mg/mL trypsin, 37° C.

The conditions of series [16]: male, Sprague Dawley, rat, in vivo. This is another data set of the same source.
The conditions of series [17]: male, Sprague Dawley, rat, in vivo. This is another data set of the same source.
Series [18] in a line: In vivo tolerability of Compound KC-3 in rats (IV). The settings on record: rat IV. The method, then:
Male naïve Sprague-Dawley rats, 4 per dose, were used in the study. Rats were weighed, and then placed under a heat lamp for 15-20 minutes to dilate the lateral tail veins. […] Before dosing, rats were placed in Broome restrainers and the drug was introduced into one of the tail veins using a syringe and needle. […] Blood samples were collected 5 minutes post-dose via the saphenous vein. The rats were observed up to 24 hours.

Series [19] in a line: In vitro stability of Compound KC-3 to household chemicals and enzyme preparations. The series is classed as physicochemical. The settings on record: vodka, baking soda, WINDEX, vinegar at RT or 80° C.; GNC Super Digestive, tenderizer, subtilisn at RT; 1 or 24 hr. The protocol: Samples were incubated as described. Aliquots were removed at 1 hr and 24 hr and stabilized by adding each to a solution of 50% or 100% of 85% phosphoric acid solution to achieve a final pH of less than or equal to pH 4. The stabilized aliquots were then diluted 4- to 6-fold with water, vortex-mixed and applied to HPLC.

Series [20] in a line: Pharmacokinetics of Compound KC-5 following PO administration to rats. The settings on record: rat PO. The format is in vivo.
Setting [21] is: male, Sprague Dawley, rat, in vivo.

T2 sequence (P35372 whole entry): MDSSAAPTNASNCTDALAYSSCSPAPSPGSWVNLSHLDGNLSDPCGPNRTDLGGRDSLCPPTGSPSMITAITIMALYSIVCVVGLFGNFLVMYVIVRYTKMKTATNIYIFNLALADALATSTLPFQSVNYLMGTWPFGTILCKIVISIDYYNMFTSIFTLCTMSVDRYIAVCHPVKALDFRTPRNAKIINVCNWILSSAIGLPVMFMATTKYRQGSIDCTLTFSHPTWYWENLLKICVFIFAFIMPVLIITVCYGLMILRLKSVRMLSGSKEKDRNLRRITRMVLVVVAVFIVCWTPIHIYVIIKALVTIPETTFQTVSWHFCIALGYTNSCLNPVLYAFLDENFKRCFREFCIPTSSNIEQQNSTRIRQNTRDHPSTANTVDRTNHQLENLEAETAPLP

As to `COc1ccc2c3c1OC1C(OC(=O)N(C)CCNC(=O)[C@H](CCCNC(=N)N)NC(=O)CC(=O)O)=CCC4[C@@H](C2)N(C)CC[C@]314` (stereo partly drawn) [Compound KC-4, N—((S)-1-{2-[(Dihydrocodein-6-enyloxycarbonyl)-methylamino]-ethylcarbamoyl-4-guanidino}-butyl)-malonamic acid], the “release of hydrocodone after oral administration” value in [1] is given as “leads to release of hydrocodone”. Also, the “KC-4 Cmax (rat plasma)” value in [2] came out at 3960 ± 570 ng/mL. Besides, the “Rate of hydrocodone formation, umol/h/BAEE U Average ± sd” value in series [3] (241 BAEE U trypsin/mL) is listed as 0.0911 ± 0.015 umol/h/BAEE U; in [3] (4815 BAEE U trypsin/mL), 0.0137 ± 0.0014 umol/h/BAEE U. Besides, the Drug/prodrug relative potency in series [4] is on record as 15.

Turning to `COc1ccc2c3c1O[C@H]1C(OC(=O)N(C)C[C@H](NC(=O)[C@H](CCCNC(=N)N)NC(C)=O)C(=O)N(C)CC(=O)O)=CC[C@@]4(O)[C@@H](C2)N(C)CC[C@]314` [Compound KC-6, ({(S)-2-((S)-2-Acetylamino-5-guanidino-pentanoylamino)-3-[(oxycodone-enyloxycarbonyl)-methyl-amino]-propionyl}-methyl-amino)-acetic acid], the “oxycodone plasma profile compared to administration of oxycodone” value in series [5] was “yields oxycodone plasma concentrations that exhibit a suppressed Cmax and AUC and delayed Tmax compared to administration of oxycodone”. In addition, the Plasma/CSF partitioning coefficient in series [6] is recorded as 815. Moreover, the figures for the “Rate of oxycodone formation, umol/h/BAEE U Average ± sd” value in [3] (241 BAEE U trypsin/mL) and in series [3] (4815 BAEE U trypsin/mL) were 0.0118 ± 0.0042 umol/h/BAEE U and 0.00571 ± 0.0002 umol/h/BAEE U, respectively.

Turning to `N=C(N)c1ccc2cc(OC(=O)c3ccc(N=C(N)N)cc3)ccc2c1` [Compound 109, 6-carbamimidoylnaphthalen-2-yl 4-(diaminomethyleneamino)benzoate], the “effect of Compound 109 on release of oxycodone from Compound KC-2” value in series [7] is “ability to attenuate Compound KC-2's ability to release oxycodone in a dose dependent manner”; in series [8], “attenuates Compound KC-2's ability to release oxycodone, both by suppressing Cmax and by delaying Tmax”. For the same compound, the “effect of Compound 109 on release of hydrocodone from Compound KC-4” value in [9] was “attenuates Compound KC-4's ability to release hydrocodone, both by suppressing Cmax and AUC and by delaying Tmax”. The “effect of Compound 109 on release of hydromorphone from Compound PC-5” value in series [10] is on record as “ability to attenuate Compound PC-5's ability to release hydromorphone in a dose dependent manner”. The “effect of Compound 109 on release of hydromorphone from Compound PC-6” value in series [11] was “ability to attenuate Compound PC-6's ability to release hydromorphone in a dose dependent manner”. Besides, the “effect of Compound 109 on release of oxycodone from Compound KC-3” value in series [12] is “attenuates Compound KC-3's ability to release oxycodone, both by suppressing Cmax and AUC and by delaying Tmax”.

Take `COc1ccc2c3c1O[C@H]1C(OC(=O)N(C)CCNC(=O)[C@H](CCCNC(=N)N)NC(C)=O)=CC[C@@]4(O)[C@@H](C2)N(C)CC[C@]314` [Compound KC-2, Oxycodone 6-(N-methyl-N-(2-N′-acetylarginylamino)) ethylcarbamate]: the “conversion of Compound KC-2 to oxycodone on exposure to household chemicals and enzyme preparations” value in [13] was “less than 10%”. Also, the “oxycodone plasma profile compared to administration of oxycodone” value in [14] was “yields oxycodone plasma concentrations that exhibit a suppressed Cmax and delayed Tmax compared to administration of oxycodone”. Moreover, in [15], the “Rate of oxycodone formation, umols/h/umol trypsin Average ± sd” value was 37.4 ± 0.9 umols/h/umol trypsin. The same compound displayed a Plasma/CSF partitioning coefficient in series [16] of 439.

In the case of `COc1ccc2c3c1O[C@H]1C(OC(=O)N(C)CCNC(=O)[C@H](CCCNC(=N)N)NC(=O)CC(=O)O)=CC[C@@]4(O)[C@@H](C2)N(C)CC[C@]314` [Compound KC-3, N-{(S)-4-guanidino-1-[2-(methyl-[(5R,9R,13S,14S)-4,5a-epoxy-6,7-didehydro-14-hydroxy-3-methoxy-17-methylmorphinan-6-oxy]carbonyl-amino)-ethylcarbamoyl]-butyl}-malonamic acid], in [17], the “Compound conc. in CSF” value is 34.1 ng/mL; the “Compound conc. in Plasma, ng/mL” value was 59,225 ng/mL; the Plasma/CSF partitioning coefficient is on record as 1,737. For the same compound, in series [3] (241 BAEE U trypsin/mL), the “Rate of oxycodone formation, umol/h/BAEE U Average ± sd” value is recorded as 0.0684 ± 0.0009 umol/h/BAEE U. In addition, the “dose tolerated by rats” value in series [18] came out at 97 µmol/kg. For the same compound, in series [18] (KC-3 97 μmol/kg), the “time to recover to normal activity” value was no more than 2 min. The “conversion of Compound KC-3 to oxycodone on exposure to household chemicals and enzyme preparations” value in series [19] was “less than 10%”.

For the compound `COc1ccc2c3c1O[C@H]1C(OC(=O)N(CCCCCC(=O)O)CCNC(=O)[C@H](CCCNC(=N)N)NC(C)=O)=CC[C@@]4(O)[C@@H](C2)N(C)CC[C@]314` [Compound KC-5, 6-{[2-(2-Acetylamino-5-guanidino-pentanoylamino)-ethyl]-[(5R, 9R,13S,14S)-4,5a-epoxy-6,7-didehydro-14-hydroxy-3-methoxy-17-methylmorphinan-6-oxy]-1-enyloxycarbonyl-amino}-hexanoic acid], the “oxycodone plasma profile compared to administration of oxycodone” value in series [20] is “yields oxycodone plasma concentrations that exhibit a suppressed Cmax and AUC and delayed Tmax compared to administration of oxycodone”. For the same compound, the “expected fold less effective at CNS mu-opioid receptors than oxycodone” value (administered intravenously in equimolar amounts, 316×50) is given as “about 15,800 fold”. Moreover, under setting [21], the “Compound conc. in CSF” value is reported as 36.4 ng/mL, the “Compound conc. in Plasma” value is listed as 54,900 ng/mL and the Plasma/CSF partitioning coefficient is listed as 1,508. Also, for the setting “rat IV, 1,508/4.8”, the “relative plasma/CSF partitioning coefficient of prodrug to oxycodone (fold less CSF penetrant than oxycodone)” value is reported as “about 316 fold”. In series [3] (241 BAEE U trypsin/mL), the “Rate of oxycodone formation, umol/h/BAEE U Average ± sd” value was 0.135 ± 0.005 umol/h/BAEE U.
